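Briefly, cells in 96-well plates were exposed to five compound concentrations for 48 h, and endpoints were estimated by linear interpolation. GI50 marks 50% less growth.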 Activity calls are given as the source filed them. Rule as the data show it: active = GI50 up to about 1.1 µM and inactive = higher.
Key:
Assay in all cases: NCI anticancer screen, dose series, 48 h
M19-MEL = system: M19-MEL
SNB-78 = system: SNB-78
DMS-273 = system: DMS-273
HOP-18 = system: HOP-18
DMS-114 = system: DMS-114
XF498 = system: XF498
LXFL 529 = system: LXFL 529
DLD-1 = system: DLD-1
RXF 631 = system: RXF 631

| SMILES | GI50 (M19-MEL) | GI50 (SNB-78) | GI50 (DMS-273) | GI50 (HOP-18) | GI50 (DMS-114) | GI50 (XF498) | GI50 (LXFL 529) | GI50 (DLD-1) | GI50 (RXF 631) |
| --- | --- | --- | --- | --- | --- | --- | --- | --- | --- |
| NC(=O)N1N=C2c3ccccc3OC[C@H]2[C@@H]1c1ccccc1 | 49.7 µM (inactive) | > 38.5 µM (inactive) | 9.1 µM (inactive) | 18.7 µM (inactive) | 7.53 µM (inactive) | 10.7 µM (inactive) | 31 µM (inactive) | 6.5 µM (inactive) | – |
| O=[N+]([O-])c1nccn1CC(O)c1ccc(F)cc1 (stereo unspecified) | > 100 µM (inactive) | – | > 100 µM (inactive) | > 100 µM (inactive) | > 100 µM (inactive) | > 100 µM (inactive) | > 100 µM (inactive) | – | > 100 µM (inactive) |
| CCc1cccc(C)c1NC(=O)C(=O)Cc1nc2ccccc2o1 | > 100 µM (inactive) | > 100 µM (inactive) | – | > 100 µM (inactive) | > 100 µM (inactive) | > 100 µM (inactive) | > 100 µM (inactive) | > 100 µM (inactive) | – |
| COc1ccc2c(c1)CCc1c(-c3n[nH]c4c3CCc3cc(OC)ccc3-4)n[nH]c1-2 | 33 µM (inactive) | 44.1 µM (inactive) | 17.4 µM (inactive) | 25.8 µM (inactive) | 55.5 µM (inactive) | 32.8 µM (inactive) | 33.1 µM (inactive) | 54.5 µM (inactive) | – |
| O=C(Cc1ccccc1)NN1C(=O)C(Cl)C1c1cc(Br)cc(Br)c1O (stereo unspecified) | 15.8 µM (inactive) | 24.4 µM (inactive) | 12.5 µM (inactive) | 7.83 µM (inactive) | 3.97 µM (inactive) | 19.8 µM (inactive) | 13.5 µM (inactive) | 8.81 µM (inactive) | – |
| COc1cc2c(c(OC)c1OC)-c1ccc(SC)c(=O)cc1[C@@H](NC(=O)c1cccc([N+](=O)[O-])c1)CC2 | 0.0296 µM (active) | 0.0243 µM (active) | < 0.01 µM (active) | – | – | 0.0205 µM (active) | 0.0239 µM (active) | < 0.01 µM (active) | 0.0164 µM (active) |
| C/C(CC(=O)Nc1cccc(Cl)c1C)=N\NC(=O)c1ccncc1 | > 100 µM (inactive) | > 100 µM (inactive) | > 100 µM (inactive) | – | > 100 µM (inactive) | > 100 µM (inactive) | > 100 µM (inactive) | > 100 µM (inactive) | – |
| CSc1nc(-c2ccccc2)c2c(n1)-c1ccccc1CC2 | > 100 µM (inactive) | – | – | > 100 µM (inactive) | > 100 µM (inactive) | > 100 µM (inactive) | > 100 µM (inactive) | > 100 µM (inactive) | > 100 µM (inactive) |
| Cc1nc2ccccc2c(=O)n1/N=C(\N=N\c1cc(Cl)ccc1Cl)c1ccccc1 | 77.4 µM (inactive) | – | 43.3 µM (inactive) | 14.3 µM (inactive) | 30.2 µM (inactive) | 61.2 µM (inactive) | 36.5 µM (inactive) | 45.6 µM (inactive) | > 10 µM (inactive) |
| CC1SC2=NC3=C(c4ccccc4C3=O)C(c3ccc(Br)cc3)N2C1=O (stereo unspecified) | 56.9 µM (inactive) | – | > 100 µM (inactive) | – | 31.2 µM (inactive) | 43.8 µM (inactive) | 53 µM (inactive) | 76 µM (inactive) | – |
| OC1/C(=C/c2ccccc2)CNC/C1=C\c1ccccc1 (stereo unspecified) | > 100 µM (inactive) | > 100 µM (inactive) | > 100 µM (inactive) | > 100 µM (inactive) | > 100 µM (inactive) | – | > 100 µM (inactive) | > 100 µM (inactive) | – |
| CCN(CC)CCNc1ccc2nnn3c4ccc(OC)cc4c(=O)c1c23 | 13.5 µM (inactive) | 10.7 µM (inactive) | – | 0.507 µM (active) | 8.89 µM (inactive) | – | 9.62 µM (inactive) | 5.05 µM (inactive) | 3.83 µM (inactive) |
| CC(=O)Nc1ccccc1Sc1ccccc1 | > 100 µM (inactive) | > 100 µM (inactive) | > 100 µM (inactive) | > 100 µM (inactive) | > 100 µM (inactive) | > 100 µM (inactive) | > 100 µM (inactive) | – | > 100 µM (inactive) |
| CC(C)C(=O)Nc1nc2c(ncn2C2OC(CO)C(O)C2O)c(=O)[nH]1 (stereo unspecified) | > 100 µM (inactive) | > 100 µM (inactive) | > 100 µM (inactive) | > 100 µM (inactive) | 67.1 µM (inactive) | > 100 µM (inactive) | > 100 µM (inactive) | > 100 µM (inactive) | > 100 µM (inactive) |
| CC(=O)OC1=CC2(OC(C)=O)CC(C)(C)C1C1C(=O)C=CC(=O)C12 (stereo unspecified) | > 100 µM (inactive) | > 100 µM (inactive) | > 100 µM (inactive) | – | > 100 µM (inactive) | > 100 µM (inactive) | > 100 µM (inactive) | > 100 µM (inactive) | > 100 µM (inactive) |
| C1CN1c1nc(N2CC2)nc(N2CC2)n1 | 12.3 µM (inactive) | – | 1.31 µM (inactive) | 17.5 µM (inactive) | 2.99 µM (inactive) | 4.89 µM (inactive) | 13.9 µM (inactive) | 18.4 µM (inactive) | 11.3 µM (inactive) |
| O=C1O[C@@H](c2ccccc2)C[C@H]1CN1CCOCC1 | – | > 100 µM (inactive) | – | – | 67 µM (inactive) | 81.8 µM (inactive) | > 100 µM (inactive) | > 100 µM (inactive) | > 100 µM (inactive) |
| CC(C)(O)[C@@H]1CCC(C)([C@H]2[C@@H](O)CC3(C)C4CC(OC5OC(CO)C(O)C(O)C5O)C5C(C)(C)[C@@H](OC6OCC(O)C(O)C6O)CC[C@@]56C[C@@]46CC[C@]23C)O1 (stereo partly specified) | > 100 µM (inactive) | > 100 µM (inactive) | > 100 µM (inactive) | > 100 µM (inactive) | > 100 µM (inactive) | > 100 µM (inactive) | > 100 µM (inactive) | > 100 µM (inactive) | – |
| C#CCC(N)(CO)C(=O)O (stereo unspecified) | > 100 µM (inactive) | > 100 µM (inactive) | > 100 µM (inactive) | > 100 µM (inactive) | > 100 µM (inactive) | > 100 µM (inactive) | > 100 µM (inactive) | > 100 µM (inactive) | – |
| O=Cc1ccc2c(c1-c1c(C=O)ccc3c1OCO3)OCO2 | > 100 µM (inactive) | > 100 µM (inactive) | > 100 µM (inactive) | > 100 µM (inactive) | > 100 µM (inactive) | – | > 100 µM (inactive) | > 100 µM (inactive) | – |
| C#CC1(O)c2ccccc2C(=O)c2ccccc21 | > 100 µM (inactive) | 35.9 µM (inactive) | > 100 µM (inactive) | > 100 µM (inactive) | – | 84.7 µM (inactive) | > 100 µM (inactive) | – | – |
| COCC(OC)C(CC=C(C#N)C#N)OC (stereo unspecified) | > 100 µM (inactive) | > 100 µM (inactive) | > 100 µM (inactive) | – | > 100 µM (inactive) | > 100 µM (inactive) | > 100 µM (inactive) | – | – |
| Cc1ccc(C(=O)C(C2=Nc3nnc(N)n3C2=O)C2=Nc3nnc(N)n3C2=O)cc1 | > 100 µM (inactive) | > 100 µM (inactive) | > 100 µM (inactive) | – | > 100 µM (inactive) | > 100 µM (inactive) | > 100 µM (inactive) | > 100 µM (inactive) | – |
| CCOC(=O)C1(C(=O)OCC)OC(=O)NC2=C1CCCC2 | > 100 µM (inactive) | > 100 µM (inactive) | > 100 µM (inactive) | 19.5 µM (inactive) | > 100 µM (inactive) | > 100 µM (inactive) | > 100 µM (inactive) | > 100 µM (inactive) | – |
